# Target: rBIIa/beta 1 sodium channels expressed in Xenopus oocytes (Rattus norvegicus, UniProt P04775)
# Assay: Electrophysiological assay (two-electrode voltage clamp), sodium channel inhibition, inactivated state
# Assay type: cell-based
# Settings: apparent Ki from single point inhibition data; rat brain type IIa/beta 1 channels in Xenopus oocytes; test pulse after 4 second depolarization from -120 mV holding potential; read-out: Ki (inhibition constant for sodium channel inhibition)
# Protocol: An electrophysiological assay was used to measure potencies of compounds of the present invention rBIIa/beta 1 sodium channels expressed in Xenopus oocytes.
# Preparation of cRNA encoding cloned rat brain type IIa (rBIIa) and beta 1 (β1): cDNA clones encoding the rat brain beta 1 subunit are cloned in house using standard methods, and mRNA are prepared by standard methods. mRNA encoding rBIIa is provided by Dr. A. Golden (UC Irvine). The mRNAs are diluted and stored at −80° C. in 1 μL aliquots until injection.
# Preparation of oocytes: Mature female Xenopus laevis are anaesthetized (20–40 min) using 0.15% 3-aminobenzoic acid ethyl ester (MS-222) following established procedures (Woodward, R. M., et al., Mol. Pharmacol. 41:89–103 (1992)).
# Two to six ovarian lobes are surgically removed. Oocytes at developmental stages V–VI are dissected from the ovary, wherein the oocytes are still surrounded by enveloping ovarian tissues. Oocytes are defolliculated on the day of surgery by treatment with collagenase (0.5 mg/mL Sigma Type I, or Boehringer Mannheim Type A, for 0.5–1 hr). Treated oocytes are vortexed to dislodge epithelia, washed repeatedly and stored in Barth's medium containing 88 mM NaCl, 1 mM KCl, 0.41 mM CaCl2, 0.33 mM Ca(NO3)2, 0.82 mM MgSO4, 2.4 mM NaHCO3, 5 mM HEPES, pH 7.4 adjusted with 0.1 mg/mL gentamycin sulphate.
# Micro-injection of oocytes: Defolliculated oocytes are micro-injected using a Nanoject injection system (Drummond Scientific Co., Broomall, Pa.). Injection pipettes are beveled to minimize clogging. Tip diameter of injection pipettes is 15–35 μm. Oocytes are microinjected with approximately 50 nL 1:10 ratio mixtures of cRNAs for rBIIa and beta 1 respectively.
# Electrophysiology: Membrane current responses are recorded in frog Ringer solution containing 115 mM NaCl, 2 mM KCl, 1.8 mM CaCl2, 5 mM HEPES, pH 7.4. Electrical recordings are made using a conventional two-electrode voltage clamp (Dagan TEV-200) over periods ranging between 1–7 days following injection. The recording chamber is a simple gravity fed flow-through chamber (volume […] depending on adjustment of aspirator). Oocytes are placed in the recording chamber, impaled with electrodes and continuously perfused (5–15 mL min^−1) with frog Ringer's solution. […]
# Voltage protocols for evoking sodium channel currents: The standard holding potential for whole oocyte clamp is −120 mV. […] Peak currents are measured as the maximum negative current after depolarizing voltage steps. […]
# The purpose is to find compounds that are state dependent modifiers of neuronal sodium channels. […] Sodium currents are measured at this test pulse before and after the application of the tested compound. Data is acquired using PCLAMP 8.0 software and analyzed with CLAMPFIT software (Axon instruments). […]
# Sequence of rBIIa/beta 1 sodium channels expressed in Xenopus oocytes (P04775 whole entry): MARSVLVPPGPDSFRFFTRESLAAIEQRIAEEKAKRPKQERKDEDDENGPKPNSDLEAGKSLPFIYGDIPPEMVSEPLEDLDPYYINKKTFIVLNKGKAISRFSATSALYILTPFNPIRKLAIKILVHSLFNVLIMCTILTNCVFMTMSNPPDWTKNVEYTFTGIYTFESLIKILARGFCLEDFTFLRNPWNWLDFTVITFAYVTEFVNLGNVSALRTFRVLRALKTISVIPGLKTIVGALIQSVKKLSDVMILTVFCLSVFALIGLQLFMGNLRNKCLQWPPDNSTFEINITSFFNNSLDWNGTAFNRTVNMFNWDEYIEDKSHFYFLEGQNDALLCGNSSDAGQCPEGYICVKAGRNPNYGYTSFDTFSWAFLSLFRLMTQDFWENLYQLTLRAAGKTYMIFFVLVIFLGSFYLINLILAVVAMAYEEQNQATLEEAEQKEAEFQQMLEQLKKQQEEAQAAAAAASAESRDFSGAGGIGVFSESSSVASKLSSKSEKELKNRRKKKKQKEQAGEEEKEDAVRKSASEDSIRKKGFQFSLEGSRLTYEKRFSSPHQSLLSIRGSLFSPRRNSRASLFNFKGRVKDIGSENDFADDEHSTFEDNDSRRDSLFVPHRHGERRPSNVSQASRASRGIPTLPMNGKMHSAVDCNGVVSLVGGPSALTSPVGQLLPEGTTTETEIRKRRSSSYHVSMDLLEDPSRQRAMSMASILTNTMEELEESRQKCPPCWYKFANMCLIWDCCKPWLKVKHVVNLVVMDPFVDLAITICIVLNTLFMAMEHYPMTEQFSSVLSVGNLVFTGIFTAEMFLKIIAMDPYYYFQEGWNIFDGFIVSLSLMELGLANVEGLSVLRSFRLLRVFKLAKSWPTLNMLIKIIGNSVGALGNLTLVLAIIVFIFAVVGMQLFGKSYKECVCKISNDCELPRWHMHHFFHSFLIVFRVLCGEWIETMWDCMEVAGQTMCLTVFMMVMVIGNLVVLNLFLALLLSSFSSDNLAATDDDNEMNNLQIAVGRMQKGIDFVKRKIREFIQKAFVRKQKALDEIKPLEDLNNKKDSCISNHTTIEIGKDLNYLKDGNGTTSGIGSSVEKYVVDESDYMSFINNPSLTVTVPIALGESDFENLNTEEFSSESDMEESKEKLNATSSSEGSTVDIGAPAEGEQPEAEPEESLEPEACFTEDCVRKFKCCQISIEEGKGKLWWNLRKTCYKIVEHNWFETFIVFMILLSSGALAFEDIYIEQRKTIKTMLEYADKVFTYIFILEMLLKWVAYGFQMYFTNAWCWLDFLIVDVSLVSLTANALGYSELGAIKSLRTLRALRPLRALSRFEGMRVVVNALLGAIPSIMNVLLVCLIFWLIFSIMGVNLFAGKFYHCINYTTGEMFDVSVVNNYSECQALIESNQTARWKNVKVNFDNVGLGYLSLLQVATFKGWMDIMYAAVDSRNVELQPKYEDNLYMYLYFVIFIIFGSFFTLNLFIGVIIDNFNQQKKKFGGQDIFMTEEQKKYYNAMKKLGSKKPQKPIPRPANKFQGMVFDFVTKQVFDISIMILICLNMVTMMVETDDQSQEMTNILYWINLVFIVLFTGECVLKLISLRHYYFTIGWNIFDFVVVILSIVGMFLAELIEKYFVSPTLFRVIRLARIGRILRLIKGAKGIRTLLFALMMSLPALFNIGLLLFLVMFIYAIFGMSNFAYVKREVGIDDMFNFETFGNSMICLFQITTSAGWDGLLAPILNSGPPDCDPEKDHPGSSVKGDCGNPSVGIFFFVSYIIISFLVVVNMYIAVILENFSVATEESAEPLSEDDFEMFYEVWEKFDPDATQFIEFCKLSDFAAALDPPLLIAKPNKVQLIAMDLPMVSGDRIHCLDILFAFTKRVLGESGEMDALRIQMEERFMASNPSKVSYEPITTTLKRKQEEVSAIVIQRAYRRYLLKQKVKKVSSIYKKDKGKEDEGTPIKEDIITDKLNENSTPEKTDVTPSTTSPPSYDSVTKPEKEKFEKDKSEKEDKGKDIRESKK
# Sequence of rBIIa/beta 1 sodium channels expressed in Xenopus oocytes (Q00954 19-218 partner): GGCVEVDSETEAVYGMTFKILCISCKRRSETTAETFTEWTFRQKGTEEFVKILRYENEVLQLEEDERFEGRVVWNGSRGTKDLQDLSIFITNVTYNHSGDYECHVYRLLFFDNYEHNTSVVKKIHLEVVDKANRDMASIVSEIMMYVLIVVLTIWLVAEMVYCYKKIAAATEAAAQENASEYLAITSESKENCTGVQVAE
row,Compound,Ki
1,Nc1nc(-c2ccc(Oc3ccc(F)cc3)cc2)[nH]c(=O)c1Cc1ccccc1Cl [2-(4-(4-fluorophenoxy)phenyl)-6-amino-5-(2-chlorobenzyl)pyrimidin-4-one],30.9 µM
2,Nc1nc(-c2ccccc2)[nH]c(=O)c1Cc1ccccc1Cl [2-phenyl-6-amino-5-(2-chlorobenzyl)pyrimidin-4-one],49.2 µM
3,Nc1cc(=O)[nH]c(-c2ccc(Oc3ccc(F)cc3)cc2)n1 [2-(4-(4-fluorophenoxy)phenyl)-6-amino-pyrimidin-4-one],0.47 µM
4,2-(4-(4-fluorophenoxy)phenyl)-4-tert-butyl-6-aminopyrimidin-4-one,15.6 µM

# From patent US7229993B2, “Aryl substituted pyrimidines and the use thereof” (Euro-Celtique S.A., priority 2002, dated 2007)
